PubChem BioAssay AID256 (DTP/NCI, 2004)
Values joined by “and” are separate entries in the source; they are usually repeats but may differ in a detail not shown here. Equal values may be shown once. Inconclusive results and toxic doses are left out.

System: CD2F1 mice, L1210 leukemia ip, survival T/C
Test: NCI In Vivo Anticancer Drug Screen. Data for tumor model L1210 Leukemia (intraperitoneal) in CD2F1 (CDF1) mice
Conditions: higher = longer survival
Procedure, shortened: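 Antitumor effect is scored in animals hosting a serially transplanted tumor. Values compare compound-dosed animals against vehicle-only controls as a simple quotient.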

[1] = endpoint: mean survival time, dose: 100.0 mg/kg/injection, schedule: Q04DX003 (ip), vehicle: saline with Tween-80
[2] = endpoint: mean survival time, dose: 200.0 mg/kg/injection, schedule: Q04DX003 (ip), vehicle: saline with Tween-80
[3] = endpoint: mean survival time, dose: 100.0 mg/kg/injection, schedule: Q01DX009 (ip), vehicle: saline with Tween-80
[4] = endpoint: mean survival time, dose: 200.0 mg/kg/injection, schedule: Q01DX009 (ip), vehicle: saline with Tween-80

C=CN1CCCC1=O
T/C [1]: 98 % of control
T/C [2]: 101 % of control
T/C (endpoint: mean survival time, dose: 400.0 mg/kg/injection, schedule: Q04DX003 (ip), vehicle: saline with Tween-80): 95 % of control
T/C (endpoint: mean survival time, dose: 1400.0 mg/kg/injection, schedule: Q01DX001 (ip), vehicle: saline): 101 % of control
T/C (endpoint: mean survival time, dose: 1600.0 mg/kg/injection, schedule: Q01DX001 (ip), vehicle: saline): 110 % of control
T/C (endpoint: mean survival time, dose: 1800.0 mg/kg/injection, schedule: Q01DX001 (ip), vehicle: saline): 117 % of control
T/C (endpoint: mean survival time, dose: 2000.0 mg/kg/injection, schedule: Q01DX001 (ip), vehicle: saline): 114 % of control
T/C (endpoint: median survival time, dose: 1.9 grams/kg/injection, schedule: Q01DX001 (iv), vehicle: saline): 100 % of control
T/C (endpoint: median survival time, dose: 1.9 grams/kg/injection, schedule: Q01DX005 (iv), vehicle: saline): 112 % of control
T/C (endpoint: median survival time, dose: 1.9 grams/kg/injection, schedule: Q03HX008 (ip), vehicle: saline): 112 % of control
T/C (endpoint: median survival time, dose: 1.9 grams/kg/injection, schedule: Q03HX016 (ip), vehicle: saline): 106 % of control
T/C (endpoint: median survival time, dose: 1.9 grams/kg/injection, schedule: Q03HX024 (ip), vehicle: saline): 112 % of control
T/C (endpoint: median survival time, dose: 1.9 grams/kg/injection, schedule: Q04DX003 (iv), vehicle: saline): 112 % of control
T/C (endpoint: median survival time, dose: 3.8 grams/kg/injection, schedule: Q01DX001 (ip), vehicle: saline): 112 % of control
T/C (endpoint: median survival time, dose: 3.8 grams/kg/injection, schedule: Q01DX001 (iv), vehicle: saline): 100 % of control
T/C (endpoint: median survival time, dose: 3.8 grams/kg/injection, schedule: Q01DX005 (ip), vehicle: saline): 100 % of control
T/C (endpoint: median survival time, dose: 3.8 grams/kg/injection, schedule: Q01DX005 (iv), vehicle: saline): 100 % of control
T/C (endpoint: median survival time, dose: 3.8 grams/kg/injection, schedule: Q01DX009 (ip), vehicle: saline): 100 % of control
T/C (endpoint: median survival time, dose: 3.8 grams/kg/injection, schedule: Q03HX008 (ip), vehicle: saline): 112 % of control
T/C (endpoint: median survival time, dose: 3.8 grams/kg/injection, schedule: Q03HX016 (ip), vehicle: saline): 112 % of control
T/C (endpoint: median survival time, dose: 3.8 grams/kg/injection, schedule: Q03HX024 (ip), vehicle: saline): 112 % of control
T/C (endpoint: median survival time, dose: 3.8 grams/kg/injection, schedule: Q04DX003 (ip), vehicle: saline): 106 % of control
T/C (endpoint: median survival time, dose: 3.8 grams/kg/injection, schedule: Q04DX003 (iv), vehicle: saline): 112 % of control
T/C (endpoint: median survival time, dose: 3.8 grams/kg/injection, schedule: Q08DX002 (ip), vehicle: saline): 106 % of control
T/C (endpoint: median survival time, dose: 7.5 grams/kg/injection, schedule: Q01DX001 (ip), vehicle: saline): 100 % of control
T/C (endpoint: median survival time, dose: 7.5 grams/kg/injection, schedule: Q01DX001 (iv), vehicle: saline): 100 % of control
T/C (endpoint: median survival time, dose: 7.5 grams/kg/injection, schedule: Q01DX005 (ip), vehicle: saline): 112 % of control
T/C (endpoint: median survival time, dose: 7.5 grams/kg/injection, schedule: Q01DX005 (iv), vehicle: saline): 106 % of control
T/C (endpoint: median survival time, dose: 7.5 grams/kg/injection, schedule: Q01DX009 (ip), vehicle: saline): 100 % of control
T/C (endpoint: median survival time, dose: 7.5 grams/kg/injection, schedule: Q03HX008 (ip), vehicle: saline): 112 % of control
T/C (endpoint: median survival time, dose: 7.5 grams/kg/injection, schedule: Q04DX003 (ip), vehicle: saline): 100 % of control
T/C (endpoint: median survival time, dose: 7.5 grams/kg/injection, schedule: Q04DX003 (iv), vehicle: saline): 106 % of control
T/C (endpoint: median survival time, dose: 7.5 grams/kg/injection, schedule: Q08DX002 (ip), vehicle: saline): 112 % of control
T/C (endpoint: median survival time, dose: 15.0 grams/kg/injection, schedule: Q01DX001 (ip), vehicle: saline): 112 % of control
T/C (endpoint: median survival time, dose: 15.0 grams/kg/injection, schedule: Q01DX009 (ip), vehicle: saline): 118 % of control
T/C (endpoint: median survival time, dose: 15.0 grams/kg/injection, schedule: Q04DX003 (ip), vehicle: saline): 112 % of control
T/C (endpoint: median survival time, dose: 15.0 grams/kg/injection, schedule: Q08DX002 (ip), vehicle: saline): 106 % of control

CCOC(=O)c1ccc(NC(=O)Nc2cccc(NC(C)=O)c2)cc1
T/C (endpoint: mean survival time, dose: 50.0 mg/kg/injection, schedule: Q01DX001 (ip), vehicle: saline with Tween-80): 96 % of control
T/C (endpoint: mean survival time, dose: 50.0 mg/kg/injection, schedule: Q01DX009 (ip), vehicle: saline with Tween-80): 87 % of control and 91 % of control
T/C (endpoint: mean survival time, dose: 50.0 mg/kg/injection, schedule: Q04DX003 (ip), vehicle: saline with Tween-80): 90 % of control
T/C (endpoint: mean survival time, dose: 100.0 mg/kg/injection, schedule: Q01DX001 (ip), vehicle: saline with Tween-80): 92 % of control
T/C [3]: 87 % of control and 91 % of control
T/C (endpoint: mean survival time, dose: 100.0 mg/kg/injection, schedule: Q04DX002 (ip), vehicle: saline with Tween-80): 87 % of control and 90 % of control
T/C [1]: 86 % of control
T/C (endpoint: mean survival time, dose: 200.0 mg/kg/injection, schedule: Q01DX001 (ip), vehicle: saline with Tween-80): 96 % of control
T/C [4]: 91 % of control
T/C (endpoint: mean survival time, dose: 200.0 mg/kg/injection, schedule: Q04DX002 (ip), vehicle: saline with Tween-80): 91 % of control
T/C [2]: 100 % of control
T/C (endpoint: mean survival time, dose: 400.0 mg/kg/injection, schedule: Q01DX001 (ip), vehicle: saline with Tween-80): 92 % of control

COc1cc(C(=O)c2c(OC)cccc2C(=O)O)c(OC)cc1C
T/C (endpoint: mean survival time, dose: 12.5 mg/kg/injection, schedule: Q01DX009 (ip), vehicle: water): 100 % of control
T/C (endpoint: mean survival time, dose: 25.0 mg/kg/injection, schedule: Q01DX009 (ip), vehicle: water): 100 % of control
T/C (endpoint: mean survival time, dose: 50.0 mg/kg/injection, schedule: Q01DX009 (ip), vehicle: water): 95 % of control
T/C (endpoint: mean survival time, dose: 100.0 mg/kg/injection, schedule: Q01DX009 (ip), vehicle: water): 95 % of control
T/C (endpoint: mean survival time, dose: 200.0 mg/kg/injection, schedule: Q01DX009 (ip), vehicle: water): 97 % of control

CCCCCCC[CH2][Sn]([CH2]CCCCCCC)([NH]S(=O)(=O)c1ccc(C)cc1)[NH]S(=O)(=O)c1ccc(C)cc1
T/C (endpoint: mean survival time, dose: 75.0 mg/kg/injection, schedule: Q01DX001 (ip), vehicle: other): 113 % of control
T/C (endpoint: mean survival time, dose: 150.0 mg/kg/injection, schedule: Q01DX001 (ip), vehicle: other): 107 % of control

CC(=O)OCC1OC(Oc2c(Br)cc(Br)cc2Br)C(OC(C)=O)C(OC(C)=O)C1OC(C)=O (stereo not given)
T/C [3]: 96 % of control
T/C [4]: 94 % of control
T/C (endpoint: mean survival time, dose: 400.0 mg/kg/injection, schedule: Q01DX009 (ip), vehicle: saline with Tween-80): 96 % of control

CCc1c(CC(=O)O)c2cc(C)ccc2n1Cc1ccc(Cl)cc1
T/C (endpoint: mean survival time, dose: 3.12 mg/kg/injection, schedule: Q01DX009 (ip), vehicle: Klucel (hydroxypropylcellulose) (HPC)): 91 % of control
T/C (endpoint: mean survival time, dose: 6.25 mg/kg/injection, schedule: Q01DX009 (ip), vehicle: Klucel (hydroxypropylcellulose) (HPC)): 104 % of control
T/C (endpoint: mean survival time, dose: 12.5 mg/kg/injection, schedule: Q01DX009 (ip), vehicle: Klucel (hydroxypropylcellulose) (HPC)): 107 % of control
T/C (endpoint: mean survival time, dose: 25.0 mg/kg/injection, schedule: Q01DX009 (ip), vehicle: Klucel (hydroxypropylcellulose) (HPC)): 102 % of control
T/C (endpoint: mean survival time, dose: 50.0 mg/kg/injection, schedule: Q01DX009 (ip), vehicle: Klucel (hydroxypropylcellulose) (HPC)): 91 % of control
T/C (endpoint: mean survival time, dose: 100.0 mg/kg/injection, schedule: Q01DX009 (ip), vehicle: Klucel (hydroxypropylcellulose) (HPC)): 96 % of control

O=c1[nH]c(=O)n(C2CC(O)C(CO)O2)cc1C1SCCS1 (stereo not given)
T/C (endpoint: mean survival time, dose: 3.8 mg/kg/injection, schedule: Q01DX005 (ip), vehicle: water): 102 % of control
T/C (endpoint: mean survival time, dose: 7.5 mg/kg/injection, schedule: Q01DX005 (ip), vehicle: water): 98 % of control
T/C (endpoint: mean survival time, dose: 15.0 mg/kg/injection, schedule: Q01DX005 (ip), vehicle: water): 95 % of control
T/C (endpoint: mean survival time, dose: 30.0 mg/kg/injection, schedule: Q01DX005 (ip), vehicle: water): 87 % of control
T/C (endpoint: mean survival time, dose: 60.0 mg/kg/injection, schedule: Q01DX005 (ip), vehicle: water): 106 % of control

CCS(=O)(=O)OCCCNCCCOS(=O)(=O)CC
T/C (endpoint: mean survival time, dose: 12.5 mg/kg/injection, schedule: Q01DX001 (ip), vehicle: saline): 103 % of control
T/C (endpoint: mean survival time, dose: 25.0 mg/kg/injection, schedule: Q01DX001 (ip), vehicle: saline): 105 % of control
T/C (endpoint: mean survival time, dose: 100.0 mg/kg/injection, schedule: Q01DX001 (ip), vehicle: saline): 160 % of control
T/C (endpoint: mean survival time, dose: 200.0 mg/kg/injection, schedule: Q01DX001 (ip), vehicle: saline): 186 % of control

O=C(OCCC[P+](c1ccccc1)(c1ccccc1)c1ccccc1)c1ccccc1
T/C (endpoint: mean survival time, dose: 6.25 mg/kg/injection, schedule: Q01DX001 (ip), vehicle: saline with Tween-80): 109 % of control
T/C (endpoint: mean survival time, dose: 6.25 mg/kg/injection, schedule: Q01DX009 (ip), vehicle: saline with Tween-80): 110 % of control
T/C (endpoint: mean survival time, dose: 12.5 mg/kg/injection, schedule: Q01DX001 (ip), vehicle: saline with Tween-80): 114 % of control
T/C (endpoint: mean survival time, dose: 12.5 mg/kg/injection, schedule: Q01DX009 (ip), vehicle: saline with Tween-80): 114 % of control
T/C (endpoint: mean survival time, dose: 25.0 mg/kg/injection, schedule: Q01DX001 (ip), vehicle: saline with Tween-80): 115 % of control
T/C (endpoint: mean survival time, dose: 25.0 mg/kg/injection, schedule: Q01DX009 (ip), vehicle: saline with Tween-80): 112 % of control
